The source of these data is patent US10952999B2, “Inhibitor of cyclin-dependent kinase CDK9” (GENFLEET THERAPEUTICS (SHANGHAI) INC., priority 2017, dated 2021).

One may read the GI50 as the concentration giving 50% growth inhibition. Low values mean more potent growth inhibition, high ones less potent growth inhibition. Usually IC50 stands for the concentration at which inhibition is half-maximal.

SMILES strings stand for the structures.

Test [1] deals with acute megakaryoblastic leukemia CMK. Put plainly: Cancer cell growth, Cell Titer-Glo cell viability assay, 72 hours. Format: cell-based. The source says: (§1) In the examples, we used acute myelocytic leukemia (AML) OCI-AML-3, acute promyelocytic leukemia cell line NB-4, MDS-RAEB (myelodysplastic syndrome-excess blasts type) cell line SKM-1, human leukemia cell Nomo-1, acute myeloid leukemia cell line MOLM14, acute myeloid leukemia cell line MOLM13, acute myeloid leukemia cell line MV4-11, acute myeloid leukemia cell line HL-60, acute myeloid leukemia cell line OCI-AML-2, histiocytic lymphoma U-937, acute B cell leukemia cell line MEC-1, acute B cell leukemia cell line MEC-2, acute megakaryoblastic leukemia CMK, hamster lung cell CHL, hamster ovary cell CHO, human non-small cell lung cancer cell H1975, human non-small cell lung cancer cell H358, human small cell lung cancer cell H209, human lung adenocarcinoma cell H1395, human non-small cell lung cancer cell PC-9, human lung cancer cell H3122, human non-small cell lung cancer cell H2122, human non-small cell lung cancer cell H1915, human lung adenocarcinoma cell H1355, human non-small cell lung cancer cell HCC827, human breast cancer cell MDA-MB-231, human breast cancer cell MDA-MB-468, human breast cancer cell MCF-7, human breast cancer cell T47D, human breast cancer cell SK-Br-3, the above cells were purchased from ATCC.
(§2) Cell Titer-Glo® (Promega, USA) chemical self-luminescence cell viability assay kit was used to detect the number of viable cells by quantitatively measuring ATP in living cells, according to which to calculate GI50 and IC50.
For orientation: In ATP-based viability assays light output follows the ATP content of the culture.

Test [2] relates to human leukemia cell Nomo-1. Described as above. Format: cell-based. The settings on record: Homo sapiens; Nomo-1, 72 hours.
Excerpt: as §1, §2

The test system of test [3] is acute myelocytic leukemia (AML) OCI-AML-3. Described as above. Format: cell-based. As to conditions: Homo sapiens, OCI-AML-3; OCI-AML3, 72 hours.
Excerpt: as §1, §2

The subject of test [4] is acute B cell leukemia cell line MEC-2. The description is as above. Format: cell-based. The settings on record: MEC2; MEC-2, 72 hours.
Excerpt: as §1, §2

Test [5] relates to acute myeloid leukemia cell line MV4-11. Described as above. As to conditions: Homo sapiens; MV4-11, 72 hours. Format: cell-based.
Excerpt: as §1, §2

Test [6] relates to MDS-RAEB (myelodysplastic syndrome-excess blasts type) cell line SKM-1. Described as above. As to conditions: Homo sapiens; SKM-1, 72 hours. Format: cell-based.
Excerpt: as §1, §2

Test [7] relates to acute myeloid leukemia cell line MOLM13. The test is described as above. The settings on record: Homo sapiens; MOLM-13, 72 hours. Format: cell-based.
Excerpt: as §1, §2

The subject of test [8] is acute B cell leukemia cell line MEC-1. Described as above. Format: cell-based. As to conditions: Homo sapiens, MEC1; MEC-1, 72 hours.
Excerpt: as §1, §2

Test [9] has as its system acute promyelocytic leukemia cell line NB-4. The description is as above. Format: cell-based. As to conditions: NB4, 72 hours.
Excerpt: as §1, §2

Test [10] has as its system histiocytic lymphoma U-937. The description is as above. Format: cell-based. The settings on record: Homo sapiens; U-937, 72 hours.
Excerpt: as §1, §2

The subject of test [11] is acute myeloid leukemia cell line OCI-AML-2. The test is described as above. Format: cell-based. The settings on record: Homo sapiens; OCI-AML2, 72 hours.
Excerpt: as §1, §2

The subject of another test is hamster lung cell CHL. The test is described as above. Format: cell-based.
Excerpt: as §1, §2

Test [12] relates to acute myeloid leukemia cell line HL-60. The test is described as above. Format: cell-based. The settings on record: Homo sapiens; HL-60, 72 hours.
Excerpt: as §1, §2

In another test the test system is hamster ovary cell CHO. The test is described as above. Format: cell-based.
Excerpt: as §1, §2

Test [13] relates to acute myeloid leukemia cell line MOLM14. The test is described as above. Format: cell-based. As to conditions: Homo sapiens; MOLM-14, 72 hours.
Excerpt: as §1, §2

The target in a further test is T1, CDK9/cyclin T1 (Homo sapiens, UniProt P50750).
T1 construct: purchased Invitrogen, USA
The test is described as follows: Enzyme assay for inhibition of CDK protein in vitro (Z-LYTE). Format: biochemical. Here is the method:
(§3) Compounds 1 and 14 diluted in DMSO were mixed with detected CDK protein (Invitrogen, USA) respectively, incubated at room temperature for 30 minutes; and then mixed with Kinase/Z-LYTE™ Peptide Substrate Mixture (Invitrogen, USA) and 4×ATP. The mixed system was transferred to a 384-well white opaque plate to react for 1 hour at room temperature; 5 μL of Development Solution (Invitrogen, USA) was added to react at room temperature for 1 hour, and finally Stop Reagent (Invitrogen, USA) was added to terminate the reaction and MD SpectraMax I3× microplate reader (Molecular Devices, USA) was used to read fluorescence values.

A further test concerns the target T2, CDK11(non-active) (Homo sapiens, UniProt Q9BWU1).
T2 construct: purchased Invitrogen, USA
Described as above. Format: biochemical. Here is the method:
as §3

A further test concerns the target T3, CDK3/cyclin E1 (Homo sapiens, UniProt Q00526).
T3 construct: purchased Invitrogen, USA
The description is as above. Format: biochemical. Here is the method:
as §3

The target of another test is T4, CDK8/cyclin C (Homo sapiens, UniProt P49336).
T4 construct: purchased Invitrogen, USA
The test is described as above. Format: biochemical. Here is the method: as §3

T4 sequence (P49336 whole entry): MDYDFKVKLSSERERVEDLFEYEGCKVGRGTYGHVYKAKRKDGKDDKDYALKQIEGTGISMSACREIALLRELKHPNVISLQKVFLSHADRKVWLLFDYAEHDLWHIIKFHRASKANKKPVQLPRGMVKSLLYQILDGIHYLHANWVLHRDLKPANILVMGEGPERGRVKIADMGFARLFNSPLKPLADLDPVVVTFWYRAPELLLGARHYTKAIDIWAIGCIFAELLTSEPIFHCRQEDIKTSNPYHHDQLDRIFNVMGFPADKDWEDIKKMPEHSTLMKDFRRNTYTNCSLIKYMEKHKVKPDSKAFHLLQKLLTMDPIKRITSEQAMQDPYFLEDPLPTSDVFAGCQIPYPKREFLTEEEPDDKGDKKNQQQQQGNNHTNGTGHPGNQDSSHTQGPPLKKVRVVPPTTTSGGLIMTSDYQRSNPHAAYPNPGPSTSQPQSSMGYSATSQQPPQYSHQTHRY
T4 sequence (P24863 whole entry partner): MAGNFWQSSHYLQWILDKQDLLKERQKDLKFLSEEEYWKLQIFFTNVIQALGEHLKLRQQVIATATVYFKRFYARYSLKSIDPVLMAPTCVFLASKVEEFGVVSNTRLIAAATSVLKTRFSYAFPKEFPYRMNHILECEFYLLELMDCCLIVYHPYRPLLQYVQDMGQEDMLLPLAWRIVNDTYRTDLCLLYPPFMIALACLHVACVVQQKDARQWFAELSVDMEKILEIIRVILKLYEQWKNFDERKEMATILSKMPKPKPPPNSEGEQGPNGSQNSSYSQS
T2 sequence (Q9BWU1 whole entry): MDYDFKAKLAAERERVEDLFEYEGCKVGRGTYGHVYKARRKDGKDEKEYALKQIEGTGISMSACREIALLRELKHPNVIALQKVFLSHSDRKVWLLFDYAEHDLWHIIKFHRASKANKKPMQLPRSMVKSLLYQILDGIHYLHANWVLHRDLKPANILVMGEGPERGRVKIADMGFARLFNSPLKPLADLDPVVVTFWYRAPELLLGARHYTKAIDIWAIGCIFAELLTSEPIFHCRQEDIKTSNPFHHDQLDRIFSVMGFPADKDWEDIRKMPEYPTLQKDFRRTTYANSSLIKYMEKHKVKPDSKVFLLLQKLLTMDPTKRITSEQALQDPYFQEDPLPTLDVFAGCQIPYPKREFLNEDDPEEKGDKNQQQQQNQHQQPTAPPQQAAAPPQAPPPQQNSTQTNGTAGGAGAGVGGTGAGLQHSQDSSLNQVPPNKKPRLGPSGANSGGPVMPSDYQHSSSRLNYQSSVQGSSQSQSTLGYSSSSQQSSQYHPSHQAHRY
T1 sequence (P50750 whole entry): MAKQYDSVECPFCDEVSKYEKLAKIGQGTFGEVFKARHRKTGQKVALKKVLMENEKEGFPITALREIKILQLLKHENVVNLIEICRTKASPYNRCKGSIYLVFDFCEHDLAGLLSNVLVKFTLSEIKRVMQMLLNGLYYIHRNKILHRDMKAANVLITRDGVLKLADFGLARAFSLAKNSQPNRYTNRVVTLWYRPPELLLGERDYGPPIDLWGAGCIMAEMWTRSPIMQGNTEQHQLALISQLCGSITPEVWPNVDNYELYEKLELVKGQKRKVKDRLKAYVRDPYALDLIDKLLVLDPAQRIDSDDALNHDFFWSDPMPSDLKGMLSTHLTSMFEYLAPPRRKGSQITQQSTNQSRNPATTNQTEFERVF
T1 sequence (O60563 whole entry partner): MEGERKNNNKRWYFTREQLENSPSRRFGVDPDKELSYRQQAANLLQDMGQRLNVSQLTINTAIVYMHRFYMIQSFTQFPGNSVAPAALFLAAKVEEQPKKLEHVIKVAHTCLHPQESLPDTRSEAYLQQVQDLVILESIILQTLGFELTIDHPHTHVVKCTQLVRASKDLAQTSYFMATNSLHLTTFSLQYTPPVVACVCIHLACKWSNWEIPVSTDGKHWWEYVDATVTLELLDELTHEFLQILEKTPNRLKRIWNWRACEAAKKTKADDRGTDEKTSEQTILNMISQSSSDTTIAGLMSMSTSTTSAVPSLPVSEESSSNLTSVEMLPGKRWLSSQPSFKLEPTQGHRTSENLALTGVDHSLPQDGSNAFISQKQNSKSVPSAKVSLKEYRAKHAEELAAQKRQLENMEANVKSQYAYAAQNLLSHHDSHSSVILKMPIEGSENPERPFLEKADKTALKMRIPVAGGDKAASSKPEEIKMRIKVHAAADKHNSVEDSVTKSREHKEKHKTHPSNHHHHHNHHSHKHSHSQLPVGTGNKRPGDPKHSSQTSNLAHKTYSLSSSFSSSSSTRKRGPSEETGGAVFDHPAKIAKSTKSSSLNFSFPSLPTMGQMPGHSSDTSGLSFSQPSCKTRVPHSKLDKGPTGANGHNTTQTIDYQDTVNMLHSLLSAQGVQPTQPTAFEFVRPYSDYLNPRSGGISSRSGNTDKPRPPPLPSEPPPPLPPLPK
T3 sequence (Q00526 whole entry): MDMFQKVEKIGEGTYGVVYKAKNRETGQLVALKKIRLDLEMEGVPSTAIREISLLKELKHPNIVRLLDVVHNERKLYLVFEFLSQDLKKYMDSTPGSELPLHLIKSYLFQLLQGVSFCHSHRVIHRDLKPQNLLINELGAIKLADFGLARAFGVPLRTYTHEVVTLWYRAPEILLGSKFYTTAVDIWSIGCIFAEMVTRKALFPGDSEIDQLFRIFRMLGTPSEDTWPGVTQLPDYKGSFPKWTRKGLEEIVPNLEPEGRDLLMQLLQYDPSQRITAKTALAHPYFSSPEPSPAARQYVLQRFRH
T3 sequence (P24864 whole entry partner): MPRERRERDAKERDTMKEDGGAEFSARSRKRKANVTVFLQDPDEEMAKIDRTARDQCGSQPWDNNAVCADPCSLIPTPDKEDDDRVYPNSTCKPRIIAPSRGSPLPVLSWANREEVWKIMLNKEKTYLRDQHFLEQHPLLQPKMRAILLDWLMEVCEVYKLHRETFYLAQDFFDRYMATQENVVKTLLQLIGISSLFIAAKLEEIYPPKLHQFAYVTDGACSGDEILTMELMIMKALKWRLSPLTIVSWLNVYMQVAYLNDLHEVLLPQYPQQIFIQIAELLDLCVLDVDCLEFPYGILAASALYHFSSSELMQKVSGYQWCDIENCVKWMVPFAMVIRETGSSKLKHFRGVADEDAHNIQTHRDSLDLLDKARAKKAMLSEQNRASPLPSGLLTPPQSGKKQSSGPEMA

As for `COCCN[C@H]1CC[C@H](Nc2cc(-c3csc(NCC4(C#N)CCOCC4)n3)c(Cl)cn2)CC1` [Compound 14, 4-((4-(5-chloro-2-(((1r,4r)-4-((2-methoxyethyl)amino)cyclohexyl)amino)pyridin-4-yl)thiazol-2-ylamino)methyl)tetrahydro-2H-pyran-4-carbonitrile], the GI50 in [1] was determined as 36 nM; in test [2], 110 nM; in test [3], 12 nM; in test [4], 23 nM; in test [5] it was 41 nM; in test [6] it was 2 nM. In addition, the GI50 turned out to be 12 nM in test [7]; 37 nM in [8]; 7.9 nM in [9]; 11 nM in test [10]; 6.6 nM in [11]; 1200 nM in the test on hamster lung cell CHL (CHL, 72 hours). Besides, the GI50 amounted to 56 nM in test [12]; 1100 nM with hamster ovary cell CHO (CHO, 72 hours); 1.1 nM in test [13]. In addition, the “inhibitory effect on normal cell CHL (in words)” value in the test on hamster lung cell CHL (CHL cells) is “no inhibitory effect”. Also, the “inhibitory effect on normal cell CHO (in words)” value with hamster ovary cell CHO (CHO cells) is recorded as “no inhibitory effect”. Moreover, the IC50 at CDK9/cyclin T1 is 1.27 nM; at CDK11(non-active) it was above 10000 nM; at CDK3/cyclin E1, above 10000 nM; on CDK8/cyclin C, above 10000 nM.
